ChEMBL document CHEMBL1126524, “Derivatives of quinuclidine as 5-HT3 receptor antagonists: influence of an additional carbonyl group on the recognition of chirality by the receptor” (Bioorg Med Chem Lett, 1993)

biological target: Serotonin 3 (5-HT3) receptor (Rattus norvegicus) (UniProt P35563+Q9JJ16); assay: Compound was tested as a 5-hydroxytryptamine 3 receptor antagonist in the rat by assessment of the inhibition of the Bezold-Jarisch effect, when administered intravenously; type: functional

SMILES	ID50 [mg/kg]
O=C1c2ccc3ccccc3c2C(=O)N1[C@H]1CN2CCC1CC2	18.6

biological target: T1, Serotonin 3 (5-HT3) receptor (Rattus norvegicus, UniProt P35563+Q9JJ16); assay: Binding affinity at 5-hydroxytryptamine 3 receptor in rat entorhinal cortex by [3H]BRL-43694 displacement.; type: tissue-based
T1 sequence (P35563 whole entry): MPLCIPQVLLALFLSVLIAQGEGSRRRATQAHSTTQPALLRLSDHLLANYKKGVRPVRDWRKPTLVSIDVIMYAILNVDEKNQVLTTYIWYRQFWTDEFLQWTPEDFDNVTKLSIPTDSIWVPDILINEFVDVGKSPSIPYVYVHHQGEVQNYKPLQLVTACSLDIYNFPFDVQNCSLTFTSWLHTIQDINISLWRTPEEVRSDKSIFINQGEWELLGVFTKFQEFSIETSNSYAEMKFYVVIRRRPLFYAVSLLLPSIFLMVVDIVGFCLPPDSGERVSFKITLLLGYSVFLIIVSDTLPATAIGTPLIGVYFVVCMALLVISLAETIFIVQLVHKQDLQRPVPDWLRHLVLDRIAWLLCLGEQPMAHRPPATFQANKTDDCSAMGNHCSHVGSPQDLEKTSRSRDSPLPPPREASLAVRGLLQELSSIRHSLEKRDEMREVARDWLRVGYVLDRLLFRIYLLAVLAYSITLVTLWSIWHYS
T1 sequence (Q9JJ16 whole entry): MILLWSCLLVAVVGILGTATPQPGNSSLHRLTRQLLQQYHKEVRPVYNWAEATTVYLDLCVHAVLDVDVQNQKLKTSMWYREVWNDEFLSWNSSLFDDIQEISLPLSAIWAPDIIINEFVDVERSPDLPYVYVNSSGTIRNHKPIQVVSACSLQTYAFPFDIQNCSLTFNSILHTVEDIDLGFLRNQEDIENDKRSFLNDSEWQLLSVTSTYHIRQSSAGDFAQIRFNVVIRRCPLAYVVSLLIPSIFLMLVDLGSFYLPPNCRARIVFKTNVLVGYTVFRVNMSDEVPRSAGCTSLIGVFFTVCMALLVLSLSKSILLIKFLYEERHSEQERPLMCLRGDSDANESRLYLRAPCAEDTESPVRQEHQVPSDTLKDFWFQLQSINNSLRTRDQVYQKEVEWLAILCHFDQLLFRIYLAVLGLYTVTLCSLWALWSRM

SMILES	Ki [nM]
CCCOc1ccccc1C(=O)N[C@@H]1CN2CCC1CC2	11.2
COc1ccccc1C(=O)N[C@H]1CN2CCC1CC2	409
O=C(N[C@@H]1CN2CCC1CC2)c1cccc2ccccc12	32
O=C1c2ccc3ccccc3c2C(=O)N1[C@H]1CN2CCC1CC2	6
O=C1c2ccc3ccccc3c2C(=O)N1[C@@H]1CN2CCC1CC2	119
COc1ccc2ccccc2c1C(=O)NC1CN2CCC1CC2 (centres undefined)	342
COc1ccccc1C(=O)N[C@@H]1CN2CCC1CC2	23.4
Nc1ccc2cccc3c2c1C(=O)N(C1CN2CCC1CC2)C3=O (centres undefined)	0.15
CCOc1ccccc1C(=O)N[C@H]1CN2CCC1CC2	100
O=C(N[C@@H]1CN2CCC1CC2)c1ccccc1	147
CCCOc1ccccc1C(=O)N[C@H]1CN2CCC1CC2	71.6
O=C(N[C@H]1CN2CCC1CC2)c1ccccc1	1890
CCOc1ccccc1C(=O)N[C@@H]1CN2CCC1CC2	18.9
